Laboratory results as given in the NIST ThermoML archive (doi:10.1021/je100832h).

Assays:
[1] = xn = mol fraction of the nth substance listed; conditions: 101.32 kPa, Liquid, Vibrating tube method
[2] = excess molar enthalpy (molar enthalpy of mixing); xn = mol fraction of the nth substance listed; conditions: 101 kPa, Liquid, Calvet calorimetry

CCOC(C)=O [ethyl acetate] + CCCCCC
Conditions	excess molar enthalpy [kcal/mol]	mass density [kg/m3]
[1], 291.15 K, x1 = 0.0165	–	663.7
[1], 291.15 K, x1 = 0.0655	–	671.62
[1], 291.15 K, x1 = 0.1077	–	678.72
[1], 291.15 K, x1 = 0.1823	–	692.02
[1], 291.15 K, x1 = 0.1962	–	694.54
[1], 291.15 K, x1 = 0.2716	–	709.09
[1], 291.15 K, x1 = 0.3518	–	725.37
[1], 291.15 K, x1 = 0.4166	–	739.37
[1], 291.15 K, x1 = 0.5519	–	770.91
[1], 291.15 K, x1 = 0.6225	–	788.69
[1], 291.15 K, x1 = 0.6795	–	803.74
[1], 291.15 K, x1 = 0.7429	–	821.35
[1], 291.15 K, x1 = 0.8048	–	839.41
[1], 291.15 K, x1 = 0.898	–	868.3
[1], 291.15 K, x1 = 0.9604	–	888.98
[1], 291.15 K, x1 = 0.9833	–	896.93
[1], 291.15 K, x1 = 1	–	902.88
[1], 298.15 K, x1 = 0.0704	–	666.2
[1], 298.15 K, x1 = 0.127	–	675.7
[1], 298.15 K, x1 = 0.193	–	687.4
[1], 298.15 K, x1 = 0.2383	–	695.9
[1], 298.15 K, x1 = 0.2909	–	706.1
[1], 298.15 K, x1 = 0.3466	–	717.4
[1], 298.15 K, x1 = 0.444	–	738.3
[1], 298.15 K, x1 = 0.4935	–	749.5
[1], 298.15 K, x1 = 0.5355	–	759.4
[1], 298.15 K, x1 = 0.5869	–	772
[1], 298.15 K, x1 = 0.6255	–	781.8
[1], 298.15 K, x1 = 0.7012	–	801.9
[1], 298.15 K, x1 = 0.7532	–	816.4
[1], 298.15 K, x1 = 0.8292	–	838.8
[1], 298.15 K, x1 = 0.8612	–	848.7
[1], 298.15 K, x1 = 0.9233	–	868.5
[1], 298.15 K, x1 = 0.9469	–	876.3
[1], 298.15 K, x1 = 1	–	894.4
[1], 318.15 K, x1 = 0.0336	–	641.5
[1], 318.15 K, x1 = 0.0764	–	648.1
[1], 318.15 K, x1 = 0.1448	–	659.3
[1], 318.15 K, x1 = 0.2606	–	679.9
[1], 318.15 K, x1 = 0.276	–	682.8
[1], 318.15 K, x1 = 0.3316	–	693.5
[1], 318.15 K, x1 = 0.3976	–	707
[1], 318.15 K, x1 = 0.4495	–	718.1
[1], 318.15 K, x1 = 0.5054	–	730.6
[1], 318.15 K, x1 = 0.5551	–	742.2
[1], 318.15 K, x1 = 0.6085	–	755.1
[1], 318.15 K, x1 = 0.7048	–	779.9
[1], 318.15 K, x1 = 0.7523	–	792.9
[1], 318.15 K, x1 = 0.7984	–	806
[1], 318.15 K, x1 = 0.8419	–	818.8
[1], 318.15 K, x1 = 0.8854	–	832.2
[1], 318.15 K, x1 = 0.9305	–	846.4
[1], 318.15 K, x1 = 1	–	869.6
[1], 328.15 K, x1 = 0.0433	–	633.2
[1], 328.15 K, x1 = 0.0847	–	639.6
[1], 328.15 K, x1 = 0.1691	–	653.4
[1], 328.15 K, x1 = 0.2349	–	664.88
[1], 328.15 K, x1 = 0.307	–	678
[1], 328.15 K, x1 = 0.3708	–	690.6
[1], 328.15 K, x1 = 0.4318	–	703.25
[1], 328.15 K, x1 = 0.4918	–	716.3
[1], 328.15 K, x1 = 0.5567	–	731.2
[1], 328.15 K, x1 = 0.6075	–	743.4
[1], 328.15 K, x1 = 0.6523	–	754.6
[1], 328.15 K, x1 = 0.7238	–	773.4
[1], 328.15 K, x1 = 0.7577	–	782.7
[1], 328.15 K, x1 = 0.8221	–	800.9
[1], 328.15 K, x1 = 0.8723	–	815.8
[1], 328.15 K, x1 = 0.9135	–	828.6
[1], 328.15 K, x1 = 0.9832	–	851.3
[1], 328.15 K, x1 = 1	–	857.17
[2], 291.15 K, x1 = 0.0535	0.0674	–
[2], 291.15 K, x1 = 0.1148	0.139	–
[2], 291.15 K, x1 = 0.1974	0.215	–
[2], 291.15 K, x1 = 0.2736	0.275	–
[2], 291.15 K, x1 = 0.3368	0.309	–
[2], 291.15 K, x1 = 0.3855	0.33	–
[2], 291.15 K, x1 = 0.4401	0.344	–
[2], 291.15 K, x1 = 0.4918	0.348	–
[2], 291.15 K, x1 = 0.5333	0.345	–
[2], 291.15 K, x1 = 0.5714	0.341	–
[2], 291.15 K, x1 = 0.6212	0.329	–
[2], 291.15 K, x1 = 0.6753	0.309	–
[2], 291.15 K, x1 = 0.722	0.282	–
[2], 291.15 K, x1 = 0.7805	0.247	–
[2], 291.15 K, x1 = 0.8412	0.199	–
[2], 291.15 K, x1 = 0.8816	0.153	–
[2], 291.15 K, x1 = 0.9343	0.0937	–
[2], 291.15 K, x1 = 0.9802	0.0349	–
[2], 298.15 K, x1 = 0.0668	0.0865	–
[2], 298.15 K, x1 = 0.1168	0.137	–
[2], 298.15 K, x1 = 0.192	0.21	–
[2], 298.15 K, x1 = 0.2621	0.261	–
[2], 298.15 K, x1 = 0.3186	0.289	–
[2], 298.15 K, x1 = 0.3929	0.319	–
[2], 298.15 K, x1 = 0.439	0.329	–
[2], 298.15 K, x1 = 0.495	0.326	–
[2], 298.15 K, x1 = 0.5309	0.324	–
[2], 298.15 K, x1 = 0.5767	0.315	–
[2], 298.15 K, x1 = 0.6196	0.304	–
[2], 298.15 K, x1 = 0.6757	0.286	–
[2], 298.15 K, x1 = 0.7368	0.255	–
[2], 298.15 K, x1 = 0.7954	0.215	–
[2], 298.15 K, x1 = 0.8424	0.17	–
[2], 298.15 K, x1 = 0.8998	0.117	–
[2], 298.15 K, x1 = 0.9521	0.0605	–
[2], 318.15 K, x1 = 0.076	0.11	–
[2], 318.15 K, x1 = 0.1524	0.195	–
[2], 318.15 K, x1 = 0.2306	0.259	–
[2], 318.15 K, x1 = 0.3029	0.3	–
[2], 318.15 K, x1 = 0.3659	0.325	–
[2], 318.15 K, x1 = 0.4345	0.339	–
[2], 318.15 K, x1 = 0.488	0.338	–
[2], 318.15 K, x1 = 0.5143	0.335	–
[2], 318.15 K, x1 = 0.5368	0.333	–
[2], 318.15 K, x1 = 0.5617	0.331	–
[2], 318.15 K, x1 = 0.6098	0.32	–
[2], 318.15 K, x1 = 0.6645	0.301	–
[2], 318.15 K, x1 = 0.7202	0.273	–
[2], 318.15 K, x1 = 0.7788	0.235	–
[2], 318.15 K, x1 = 0.8406	0.184	–
[2], 318.15 K, x1 = 0.9004	0.125	–
[2], 318.15 K, x1 = 0.9547	0.0638	–
